Measured values from ChEMBL document CHEMBL4421722, “Inhibitors of protein prenyltransferases” (2013).

Species on record: Rattus norvegicus
Experiment: Inhibition of rat recombinant geranylgeranyltransferase type I expressed in Escherichia coli assessed as residual enzyme activity for geranylgeranylation of K-Ras4B at 50 uM incubated for 30 mins in presence of [3H]GGPP by scintillation counting assay relative to control
In the case of Cc1ccc(S(=O)(=O)N2C[C@@H](C(=O)O)[C@H](SCCc3ccccc3)C[C@H]2c2ccccc2)cc1, the Activity is reported as 15.2 to 16.5%. In the case of Cc1ccc(S(=O)(=O)N2[C@@H](c3ccc(Cl)cc3)C(C(=O)O)=CC[C@H]2c2ccc(Cl)c(Cl)c2)cc1, the Activity is reported as 17.7 to 21.3%. For Cc1ccc(S(=O)(=O)N2C[C@@H](C(=O)O)[C@H](SCCc3ccccc3)C[C@H]2c2ccccc2F)cc1, the Activity was 3.4 to 6.8%. For Cc1ccc(S(=O)(=O)N2C[C@@H](C(=O)O)[C@H](SCc3ccccc3)C[C@H]2c2cccc(Br)c2)cc1, the Activity was 5.5 to 7.6%. For C=CCS[C@H]1[C@@H](C(=O)O)[C@H](c2ccc(Cl)c(Cl)c2)N(S(=O)(=O)c2ccc(C)cc2)[C@@H]1CCCCCC, the Activity was 15.1%. Work on COc1cccc([C@@H]2C[C@@H](SCCc3ccccc3)[C@H](C(=O)O)CN2S(=O)(=O)c2ccc(C)cc2)c1 yielded an Activity of 20.8 to 24.2%. Cc1ccc(S(=O)(=O)N2C[C@@H](C(=O)O)[C@H](Sc3ccc(Cl)cc3)C[C@H]2c2ccccc2)cc1 showed an Activity of 64.1%. Cc1ccc(S(=O)(=O)N2C[C@@H](C(=O)O)[C@H](SCc3ccccc3)C[C@H]2c2ccccc2F)cc1 was tested, and the Activity was 12.8 to 15.7%. Compound Cc1ccc(S(=O)(=O)N2[C@@H](c3cccc(Br)c3)C(C(=O)O)=CC[C@H]2c2ccc(Cl)c(Cl)c2)cc1 has an Activity of 8.6 to 24.9%. With CCCCCC[C@@H]1[C@@H](Sc2ccc(C)cc2)[C@@H](C(=O)O)[C@H](c2ccc(Cl)c(Cl)c2)N1S(=O)(=O)c1ccc(C)cc1 the Activity was 21.3%. In the case of C=CCS[C@H]1[C@@H](C(=O)O)[C@H](c2ccc(Br)cc2)N(S(=O)(=O)c2ccc(C)cc2)[C@@H]1CCCCCC, the Activity is reported as 15.5%. Work on Cc1ccccc1S(=O)(=O)N1[C@@H](c2cccc(Br)c2)C(C(=O)O)=CC[C@H]1c1ccc(Cl)cc1 yielded an Activity of 10.6 to 19.2%. C=CCS[C@H]1[C@@H](C(=O)O)[C@H](c2ccc(Cl)cc2)N(S(=O)(=O)c2ccccc2C)[C@@H]1CCC gave an Activity of 28.4%. COc1ccc([C@@H]2C[C@@H](SCCc3ccccc3)[C@H](C(=O)O)CN2S(=O)(=O)c2ccccc2)cc1 gave an Activity of 24.1 to 28.3%. CC[C@@H]1[C@@H](Sc2ccc(OC)cc2)[C@@H](C(=O)O)[C@H](c2cccc(Cl)c2)N1S(=O)(=O)c1ccc(C)cc1 showed an Activity of 25.5%. COc1ccc([C@@H]2C[C@@H](Sc3ccccc3)[C@H](C(=O)O)CN2S(=O)(=O)c2ccc(Cl)cc2)cc1 was tested, and the Activity was 97.2%. In the case of Cc1ccc(S(=O)(=O)N2C[C@@H](C(=O)O)[C@H](SCc3ccccc3)C[C@H]2c2ccc(Cl)cc2)cc1, the Activity is reported as 11.5 to 15.8%. With COc1ccc([C@@H]2C[C@@H](SCc3ccc(Cl)cc3)[C@H](C(=O)O)CN2S(=O)(=O)c2ccc(Cl)cc2)cc1 the Activity was 20.8 to 27.1%. Cc1ccc(S(=O)(=O)N2C[C@@H](C(=O)O)[C@H](SCCc3ccccc3)C[C@H]2c2ccc3c(c2)OCO3)cc1 was tested, and the Activity was 6.5 to 9.2%. C=CCS[C@H]1[C@@H](C(=O)O)[C@H](c2ccc(Cl)cc2)N(S(=O)(=O)c2ccc(C)cc2)[C@@H]1CC1CCCC1 gave an Activity of 25.2%. Cc1cccc([C@H]2C(C(=O)O)=CC[C@@H](c3ccc(Cl)cc3)N2S(=O)(=O)c2ccccc2C)c1 showed an Activity of 15.6 to 81.1%. Cc1ccccc1S(=O)(=O)N1C[C@@H](C(=O)O)[C@H](SCCc2ccccc2)C[C@H]1c1ccc(Cl)cc1 was tested, and the Activity was 11.2 to 12.6%. Cc1ccc(S(=O)(=O)N2[C@H](CC3CCCC3)[C@@H](SCCC(=O)OC(C)(C)C)[C@@H](C(=O)O)[C@@H]2c2ccc(Cl)c(Cl)c2)cc1 gave an Activity of 16.1%. CCc1ccc([C@@H]2C[C@@H](SCCc3ccccc3)[C@H](C(=O)O)CN2S(=O)(=O)c2ccc(C)cc2)cc1 was tested, and the Activity was 2.3 to 3%. Cc1ccc(S(=O)(=O)N2C[C@@H](C(=O)O)[C@H](SCCC(C)C)C[C@H]2c2cccc(Br)c2)cc1 was tested, and the Activity was 13.7 to 19.2%. Cc1ccccc1S(=O)(=O)N1[C@H](CC2CCCC2)[C@@H](SCCC(=O)OC(C)(C)C)[C@@H](C(=O)O)[C@@H]1c1ccc(Cl)cc1 gave an Activity of 10%. For CCOc1ccc([C@@H]2C[C@@H](SCCc3ccccc3)[C@H](C(=O)O)CN2S(=O)(=O)c2ccc(C)cc2)cc1, the Activity was 24.6 to 37.2%. Cc1ccc([C@@H]2C[C@@H](SCCc3ccccc3)[C@H](C(=O)O)CN2S(=O)(=O)c2ccccc2C)cc1 showed an Activity of 10.2 to 13.8%. With CCCCS[C@H]1[C@@H](C(=O)O)[C@H](c2cccc(F)c2)N(S(=O)(=O)c2ccc(C)cc2)[C@@H]1CCCC the Activity was 23.5%. For Cc1ccc(S(=O)(=O)N2C[C@@H](C(=O)O)[C@H](Sc3ccccc3)C[C@H]2c2ccc(Cl)cc2)cc1, the Activity was 40%.

Species on record: Rattus norvegicus
Experiment: Inhibition of rat recombinant geranylgeranyltransferase type I expressed in Escherichia coli assessed as residual enzyme activity for geranylgeranylation of RhoA at 50 uM incubated for 30 mins in presence of [3H]GGPP by scintillation counting assay relative to control
Work on Cc1ccc(S(=O)(=O)N2C[C@@H](C(=O)O)[C@H](SCCc3ccccc3)C[C@H]2c2ccccc2)cc1 yielded an Activity of 5.8%. With Cc1ccc(S(=O)(=O)N2[C@@H](c3ccc(Cl)cc3)C(C(=O)O)=CC[C@H]2c2ccc(Cl)c(Cl)c2)cc1 the Activity was 12.1%. With Cc1ccc(S(=O)(=O)N2C[C@@H](C(=O)O)[C@H](SCCc3ccccc3)C[C@H]2c2ccccc2F)cc1 the Activity was 3.1%. Cc1ccc(S(=O)(=O)N2C[C@@H](C(=O)O)[C@H](SCc3ccccc3)C[C@H]2c2cccc(Br)c2)cc1 showed an Activity of 2.9%. C=CCS[C@H]1[C@@H](C(=O)O)[C@H](c2ccc(Cl)c(Cl)c2)N(S(=O)(=O)c2ccc(C)cc2)[C@@H]1CCCCCC was tested, and the Activity was 6.8%. COc1cccc([C@@H]2C[C@@H](SCCc3ccccc3)[C@H](C(=O)O)CN2S(=O)(=O)c2ccc(C)cc2)c1 was tested, and the Activity was 11.4%. Compound Cc1ccc(S(=O)(=O)N2C[C@@H](C(=O)O)[C@H](Sc3ccc(Cl)cc3)C[C@H]2c2ccccc2)cc1 has an Activity of 14.2%. Compound Cc1ccc(S(=O)(=O)N2C[C@@H](C(=O)O)[C@H](SCc3ccccc3)C[C@H]2c2ccccc2F)cc1 has an Activity of 8.1%. For Cc1ccc(S(=O)(=O)N2[C@@H](c3cccc(Br)c3)C(C(=O)O)=CC[C@H]2c2ccc(Cl)c(Cl)c2)cc1, the Activity was 3.2%. For CCCCCC[C@@H]1[C@@H](Sc2ccc(C)cc2)[C@@H](C(=O)O)[C@H](c2ccc(Cl)c(Cl)c2)N1S(=O)(=O)c1ccc(C)cc1, the Activity was 9.2%. C=CCS[C@H]1[C@@H](C(=O)O)[C@H](c2ccc(Br)cc2)N(S(=O)(=O)c2ccc(C)cc2)[C@@H]1CCCCCC gave an Activity of 5.5%. Work on Cc1ccccc1S(=O)(=O)N1[C@@H](c2cccc(Br)c2)C(C(=O)O)=CC[C@H]1c1ccc(Cl)cc1 yielded an Activity of 8.8%. In the case of C=CCS[C@H]1[C@@H](C(=O)O)[C@H](c2ccc(Cl)cc2)N(S(=O)(=O)c2ccccc2C)[C@@H]1CCC, the Activity is reported as 8.9%. In the case of COc1ccc([C@@H]2C[C@@H](SCCc3ccccc3)[C@H](C(=O)O)CN2S(=O)(=O)c2ccccc2)cc1, the Activity is reported as 9.6%. CC[C@@H]1[C@@H](Sc2ccc(OC)cc2)[C@@H](C(=O)O)[C@H](c2cccc(Cl)c2)N1S(=O)(=O)c1ccc(C)cc1 showed an Activity of 6.5%. COc1ccc([C@@H]2C[C@@H](Sc3ccccc3)[C@H](C(=O)O)CN2S(=O)(=O)c2ccc(Cl)cc2)cc1 showed an Activity of 11.9%. Compound Cc1ccc(S(=O)(=O)N2C[C@@H](C(=O)O)[C@H](SCc3ccccc3)C[C@H]2c2ccc(Cl)cc2)cc1 has an Activity of 4.6%. Compound COc1ccc([C@@H]2C[C@@H](SCc3ccc(Cl)cc3)[C@H](C(=O)O)CN2S(=O)(=O)c2ccc(Cl)cc2)cc1 has an Activity of 8.5%. Work on Cc1ccc(S(=O)(=O)N2C[C@@H](C(=O)O)[C@H](SCCc3ccccc3)C[C@H]2c2ccc3c(c2)OCO3)cc1 yielded an Activity of 2%. C=CCS[C@H]1[C@@H](C(=O)O)[C@H](c2ccc(Cl)cc2)N(S(=O)(=O)c2ccc(C)cc2)[C@@H]1CC1CCCC1 showed an Activity of 7.7%. Cc1cccc([C@H]2C(C(=O)O)=CC[C@@H](c3ccc(Cl)cc3)N2S(=O)(=O)c2ccccc2C)c1 showed an Activity of 12.4%. In the case of Cc1ccccc1S(=O)(=O)N1C[C@@H](C(=O)O)[C@H](SCCc2ccccc2)C[C@H]1c1ccc(Cl)cc1, the Activity is reported as 4.1%. With Cc1ccc(S(=O)(=O)N2[C@H](CC3CCCC3)[C@@H](SCCC(=O)OC(C)(C)C)[C@@H](C(=O)O)[C@@H]2c2ccc(Cl)c(Cl)c2)cc1 the Activity was 7.3%. CCc1ccc([C@@H]2C[C@@H](SCCc3ccccc3)[C@H](C(=O)O)CN2S(=O)(=O)c2ccc(C)cc2)cc1 was tested, and the Activity was 2.9%. For Cc1ccc(S(=O)(=O)N2C[C@@H](C(=O)O)[C@H](SCCC(C)C)C[C@H]2c2cccc(Br)c2)cc1, the Activity was 2.3%. For Cc1ccccc1S(=O)(=O)N1[C@H](CC2CCCC2)[C@@H](SCCC(=O)OC(C)(C)C)[C@@H](C(=O)O)[C@@H]1c1ccc(Cl)cc1, the Activity was 7.8%. In the case of CCOc1ccc([C@@H]2C[C@@H](SCCc3ccccc3)[C@H](C(=O)O)CN2S(=O)(=O)c2ccc(C)cc2)cc1, the Activity is reported as 14.5%. With Cc1ccc([C@@H]2C[C@@H](SCCc3ccccc3)[C@H](C(=O)O)CN2S(=O)(=O)c2ccccc2C)cc1 the Activity was 5.3%. In the case of CCCCS[C@H]1[C@@H](C(=O)O)[C@H](c2cccc(F)c2)N(S(=O)(=O)c2ccc(C)cc2)[C@@H]1CCCC, the Activity is reported as 7.1%. Cc1ccc(S(=O)(=O)N2C[C@@H](C(=O)O)[C@H](Sc3ccccc3)C[C@H]2c2ccc(Cl)cc2)cc1 showed an Activity of 4.6%.
